Results on one compound are retold here after patent US20160331743A1 (UROGEN PHARMA LTD, priority 2014, published 2016).

In this test the test system is carcinoma in situ (CIS) bladder cancer. As to conditions: imiquimod 0.4%, once weekly for 6 weeks.

Entries after “also recorded” stand apart in the source; their conditions may differ. Where two headings read alike, the source gives them in different places.

Excerpt: Patients who have been diagnosed with CIS bladder cancer are potential candidates for the study. The CIS lesion(s) may be primary, secondary, or recurrent, and may be concomitant to a Ta or T1 lesion, provided the Ta or T1 lesion has been fully resected.
After provision of written informed consent, patients are to be evaluated for study eligibility during the screening period within 28 days (4 weeks) before Day 0 (i.e., the first day of study drug administration). Screening evaluations to be performed include medical history, physical examination, vital signs, Eastern Cooperative Oncology Group (ECOG) performance status, hematology and clinical chemistry, and urinalysis with culture. Screening evaluations also include a cystoscopic examination of the bladder with mapping and biopsy/ies of all suspicious areas between Days −28 and −14, followed by a bladder washing for cytology. Patients who have undergone such examinations as part of the diagnostic process outside of the study are not required to undergo the procedures again, provided the examinations occurred within the specified timeframe and positive slides are available for a central pathology and cytology review.
In cases with no visible lesions, at least one biopsy will be taken at the prior positive site and at least 1 additional random biopsy will be taken. Response to treatment will be determined based on urine cytology and tissue sample histology findings.
Patients meeting all of the following criteria were considered eligible for study entry: • 1. Males or female patient is aged ≧18 years. • 2. Patient has pathologically-proven, recurrent, primary, secondary, or concomitant carcinoma in situ disease, defined by having either CIS alone or Ta or T1 with CIS, provided the Ta or T1 lesion(s) has/have been fully resected. In cases with T1 tumor lesions, muscularis propria tissue should be in the resected specimen to confirm that it is tumor-free. • 3. Patient has undergone mapping of the bladder between Days −28 and −14, with at least one biopsy providing pathological confirmation of CIS of the bladder. • 4. Patient has undergone bladder washing for cytology between Days −28 and −1. In patients in whom Ta or T1 lesion(s) were resected, the bladder washing must have occurred after the resection. • 5. Patient has an ECOG performance status 0-2. • 6. Patient has adequate bone marrow, hepatic, and renal function within 4 weeks before Day 0.

In the case of `CC(C)Cn1cnc2c(N)nc3ccccc3c21` [imiquimod, 1-Isobutyl-1H-imidazo[4,5-c]quinolin-4-amine], the “Summary (response to treatment)” value is recorded as “Responder” (Patient 1 (BCG refractory, CIS), 50 mL intravesical); “partial responder” (Patient 2 (prior chemo, BCG; CIS), 50 mL intravesical, evaluation still ongoing); “Responder” (Patient 3 (no prior treatment, CIS + papillary cancer), 50 mL intravesical); “Responder” (Patient 5 (prior BCG/Mitomycin, CIS), 50 mL intravesical). The Histology post treatment entry (Patient 1 (prior BCG, CIS prior to treatment), 200 mg in 50 mL intravesical, assessed 5 to 7 weeks after last dose) is given as “no tumor was detecable”; the Histology post treatment result (Patient 2 (prior chemotherapy, BCG, 9x TURBT, CIS prior to treatment), 50 mL intravesical) is “still CIS detected and CIS”; the Histology post treatment result (Patient 3 (no prior treatment, CIS + papillary high and low grade cancer prior to treatment), 50 mL intravesical) is recorded as “no tumor was detected any more; also recorded: No tumor”; the Histology post treatment result (Patient 4 (prior TURB, low grade prior to treatment; had no CIS bladder cancer, excluded from study), 50 mL intravesical) was “No tumor”; the Histology post treatment result (Patient 5 (prior BCG/Mitomycin, CIS prior to treatment), 50 mL intravesical) was “no tumor was detectable”. Also, the “Tumour detectable in follow-up evaluation” value (Patient 1, preliminary results, 50 mL intravesical) is on record as “no tumour was detectable”. Moreover, where the note is “Patient 3 (no prior treatment), 50 mL intravesical”, the Cytology post treatment entry is on record as “no tumor was detected any more”. The “Number of patients with complete remission of the CIS bladder cancer as assessed by histology” value (of the 5 patients analyzed (patients 1, 3, 4, 5 counted), 50 mL intravesical) is listed as “Four”.
